Data: patent US4348388A, “11-Amino-11-deoxydaunorubicin and analogs” (G.D. Searle & Co., priority 1980, dated 1982)
Values after ≈ are worked out from the molar mass of the structure shown. Like-named read-outs stand apart in the source and are kept apart here.

Experiments:
L-1210 leukemia = assay: Antineoplastic activity against L-1210 leukemia (single i.v. dose, survival vs control mice); assay type: in vivo, BDF1 male mice; conditions: single i.v. dose 24 hours after i.v. implant of 10^5 L-1210 cells; at optimum dose (Adriamycin 33.6, Ex. XII 27, 4-Demethoxydaunorubicin 4.5 μmoles/kg); ten mice per group
Experimental: The antineoplastic activity of the compounds of this invention was first established against L-1210 leukemia. The relative activities against the L-1210 leukemia and the L cell cytotoxicity was determined and compared to that of adriamycin.
Donor mice were implanted with L-1210 leukemia cells i.p. On the sixth day following implant, the mice were sacrificed. Tumor cells were collected from the peritoneal cavity, suspended in saline solution, and 10^5 cells per mouse were implanted i.v. into BDF1 male mice weighing 18-20 grams. Ten mice per treatment group were employed and the day of implantation considered as day 0. A single dose of test compound was administered by i.v. injection 24 hours following the implant of L-1210 tumor cells. The animals were observed and the survival pattern was compared with that of control mice which received the same tumor implant but were not treated with drug. Results are presented as %ILS (increase in life span over control animals) in Table 3 below.

L-cells = assay: L-cell cytotoxicity; assay type: cell-based; conditions: 48 h
Experimental: Expotentially growing L-cells were treated with dilutions of Compound XII and adriamycin and ID50 (concentration of compounds giving 50% inhibition of cell growth) measured after 48 hours with the following results.

[1] = background; limits use; cited from earlier work
P-388 leukemias = assay: Activity against P-388 leukemia by oral or intraperitoneal administration; assay type: in vivo
L-1210 leukemias = assay: Activity against L-1210 leukemia by oral or intraperitoneal administration; assay type: in vivo
[2] = administered intraperitoneally, compared with intravenous

Compound	% ILS (increase in life span over control animals) (L-1210 leukemia) [%]	Survivors at day 60 (L-1210 leukemia)	IC50 (L-cells; read-out: ID50 (concentration of compounds giving 50% inhibition of cell growth), Ex. 19, exponentially growing L-cells) [µg/mL]	IC50 (L-cells; read-out: ID50 (concentration of compounds giving 50% inhibition of cell growth), Ex. 20, exponentially growing L-cells) [µg/mL]	cardiac toxicity [1]	IC50 (L-cells; Ex. 19, exponentially growing L-cells, read-out: ID50 (concentration of compounds giving 50% inhibition of cell growth)) [µg/mL]	IC50 (L-cells; Ex. 20, exponentially growing L-cells, read-out: ID50 (concentration of compounds giving 50% inhibition of cell growth)) [µg/mL]	activity against P-388 leukemia (P-388 leukemias; [2])	activity against P-388 leukemia (P-388 leukemias; administered orally)	activity against L-1210 leukemia (L-1210 leukemias; [2])	activity against L-1210 leukemia (L-1210 leukemias; administered orally)
CC(=O)[C@]1(O)Cc2c(O)c3c(c(O)c2[C@@H](O[C@H]2C[C@H](N)[C@H](O)[C@H](C)O2)C1)C(=O)c1ccccc1C3=O [4-Demethoxydaunorubicin]	83	0									
COc1cccc2c1C(=O)c1c(O)c3c(c(O)c1C2=O)C[C@@](O)(C(=O)CO)C[C@@H]3O[C@H]1C[C@H](N)[C@H](O)[C@H](C)O1 [Adriamycin]	100	0	0.063 (≈ 0.116 µM)	0.1 (≈ 0.184 µM)	cardiac toxicity						
CC(=O)[C@]1(O)Cc2c(N)c3c(c(O)c2[C@@H](O[C@H]2C[C@H](N)[C@H](O)[C@H](C)O2)C1)C(=O)c1ccccc1C3=O [Compound XII, cis-9-acetyl-11-amino-7S-[(3-amino-2,3,6-trideoxy-α-L-lyxo-hexopyranosyl)oxy]-7,8,9,10-tetrahydro-6,9-dihydroxy-5,12-naphthacenedione chloride]	96	0				0.01	0.015	less active	inactive	less active	inactive
